Data published in the NIST ThermoML archive (doi:10.1016/j.jct.2014.07.026).
Numbers after ± are expanded uncertainties.

Assay: mn = molality of the nth substance listed, in mol/kg
Conditions: 100 kPa, Liquid; for mass density: Vibrating tube method; for speed of sound: Frequency=2 MHz, Linear variable-path acoustic interferometer

CC(C)C[C@H](N)C(=O)[O-].CCCCn1cc[n+](C)c1 [1-butyl-3-methylimidazolium L-leucinate] + O
Conditions	mass density [kg/m3]	speed of sound [m/s]
293.15 K, m1 = 0.03697	999.215 ± 0.11	–
293.15 K, m1 = 0.05641	999.729 ± 0.11	–
293.15 K, m1 = 0.07287	1000.17 ± 0.11	–
293.15 K, m1 = 0.09146	1000.67 ± 0.11	–
293.15 K, m1 = 0.1132	1001.23 ± 0.11	–
293.15 K, m1 = 0.1544	1002.32 ± 0.11	–
293.15 K, m1 = 0.1911	1003.25 ± 0.11	–
293.15 K, m1 = 0.2335	1004.32 ± 0.11	–
293.15 K, m1 = 0.2827	1005.52 ± 0.11	–
293.15 K, m1 = 0.3424	1007.01 ± 0.11	–
293.15 K, m1 = 0.3957	1008.25 ± 0.11	–
293.15 K, m1 = 0.4527	1009.6 ± 0.11	–
293.15 K, m1 = 0.5127	1010.96 ± 0.11	–
298.15 K, m1 = 0.03697	998.03 ± 0.11	–
298.15 K, m1 = 0.04773	–	1507.7 ± 2.5
298.15 K, m1 = 0.05641	998.525 ± 0.11	–
298.15 K, m1 = 0.07287	998.954 ± 0.11	–
298.15 K, m1 = 0.09146	999.435 ± 0.11	–
298.15 K, m1 = 0.1038	–	1519.1 ± 2.5
298.15 K, m1 = 0.1132	999.978 ± 0.11	–
298.15 K, m1 = 0.1495	–	1528.5 ± 2.5
298.15 K, m1 = 0.1544	1001.01 ± 0.11	–
298.15 K, m1 = 0.1911	1001.9 ± 0.11	–
298.15 K, m1 = 0.1994	–	1538.3 ± 2.5
298.15 K, m1 = 0.2335	1002.93 ± 0.11	–
298.15 K, m1 = 0.2447	–	1547.3 ± 2.5
298.15 K, m1 = 0.2827	1004.13 ± 0.11	–
298.15 K, m1 = 0.2957	–	1557.1 ± 2.5
298.15 K, m1 = 0.3424	1005.51 ± 0.11	–
298.15 K, m1 = 0.3491	–	1567.5 ± 2.5
298.15 K, m1 = 0.3957	1006.7 ± 0.11	–
298.15 K, m1 = 0.4035	–	1577.8 ± 2.5
298.15 K, m1 = 0.4527	1008.01 ± 0.11	–
298.15 K, m1 = 0.4605	–	1588.7 ± 2.6
298.15 K, m1 = 0.5127	1009.37 ± 0.11	–
298.15 K, m1 = 0.5164	–	1599.4 ± 2.6
303.15 K, m1 = 0.03697	996.605 ± 0.11	–
303.15 K, m1 = 0.05641	997.088 ± 0.11	–
303.15 K, m1 = 0.07287	997.496 ± 0.11	–
303.15 K, m1 = 0.09146	997.966 ± 0.11	–
303.15 K, m1 = 0.1132	998.492 ± 0.11	–
303.15 K, m1 = 0.1544	999.496 ± 0.11	–
303.15 K, m1 = 0.1911	1000.35 ± 0.11	–
303.15 K, m1 = 0.2335	1001.35 ± 0.11	–
303.15 K, m1 = 0.2827	1002.52 ± 0.11	–
303.15 K, m1 = 0.3424	1003.84 ± 0.11	–
303.15 K, m1 = 0.3957	1005.02 ± 0.11	–
303.15 K, m1 = 0.4527	1006.25 ± 0.11	–
303.15 K, m1 = 0.5127	1007.54 ± 0.11	–
308.15 K, m1 = 0.03562	994.921 ± 0.11	–
308.15 K, m1 = 0.05661	995.428 ± 0.11	–
308.15 K, m1 = 0.07558	995.879 ± 0.11	–
308.15 K, m1 = 0.0961	996.37 ± 0.11	–
308.15 K, m1 = 0.114	996.791 ± 0.11	–
308.15 K, m1 = 0.1577	997.799 ± 0.11	–
308.15 K, m1 = 0.1946	998.637 ± 0.11	–
308.15 K, m1 = 0.2469	999.798 ± 0.11	–
308.15 K, m1 = 0.2813	1000.57 ± 0.11	–
308.15 K, m1 = 0.345	1001.95 ± 0.11	–
308.15 K, m1 = 0.3992	1003.13 ± 0.11	–
308.15 K, m1 = 0.4555	1004.31 ± 0.11	–
308.15 K, m1 = 0.5127	1005.43 ± 0.11	–
313.15 K, m1 = 0.03562	993.087 ± 0.11	–
313.15 K, m1 = 0.05661	993.589 ± 0.11	–
313.15 K, m1 = 0.07558	994.031 ± 0.11	–
313.15 K, m1 = 0.0961	994.501 ± 0.11	–
313.15 K, m1 = 0.114	994.919 ± 0.11	–
313.15 K, m1 = 0.1577	995.899 ± 0.11	–
313.15 K, m1 = 0.1946	996.701 ± 0.11	–
313.15 K, m1 = 0.2469	997.848 ± 0.11	–
313.15 K, m1 = 0.2813	998.573 ± 0.11	–
313.15 K, m1 = 0.345	999.913 ± 0.11	–
313.15 K, m1 = 0.3992	1001.03 ± 0.11	–
313.15 K, m1 = 0.4555	1002.11 ± 0.11	–
313.15 K, m1 = 0.5127	1003.22 ± 0.11	–
